For assay [1], the target named is T1, MNK1 (Homo sapiens, UniProt Q9BUB5).
T1 construct: purchased Life Technologies or Carna Biosciences PV6023 or 02-145; host or cells: baculovirus infected insect cells
Description: MNK inhibition assay (Z-Lyte kinase assay, Ser/Thr 7 peptide). The assay is classed as biochemical. Conditions: for IC50: recombinant GST-MNK1, 3 hours at 31° C. An excerpt: For the measurement of the activity of the MNK1 kinase the Z-Lyte kinase assay system was used. The kinase activity of MNK1 can be quantified with the Z-Lyte kinase assay kit Ser/Thr 7 peptide (Life Technologies PV3180). The kit was utilized according to the instructions of the provider. A recombinant GST-MNK1 fusion protein produced in and purified from baculovirus infected insect cells was used as enzyme source (GST-MNK1 Life Technologies PV6023 or Carna Biosciences 02-145). It was verified that both sources of the MNK1 enzyme gave similar IC50 values with several compounds. The MNK1 enzyme assay was performed in 384 well round bottom black microtiter plates (Corning 3676). The kinase reaction was performed for 3 hours at 31° C. As instructed by the provider of the kit the amount of enzyme was chosen such that ˜30% of the substrate peptide was phosphorylated in control wells containing buffer only. The MNK1 inhibiting activity of compounds was tested by adding the compounds to the kinase reaction at a concentration of 10000, 5000, 2000, 1000, 500, 200, 100, 50 nM. Compounds with strong MNK1 inhibition were tested at 20, 10, 5, 2, 1 and 0.5 nM in addition. Each compound concentration was tested at least in duplicate. The % phosphorylation of the substrate peptide at each compound concentration was calculated as described in the assay manual. The fluorescent signals were recordes on Biotek Cytation 3 microplate reader. The IC50, the concentration that reduced substrate phosphorylation by 50% if compared to buffer only wells, was calculated with the Grafit 6 software (Erythacus software).

Assay [2] deals with human pancreatic cancer cell line MiaPaCa2 (ATCC CRL-1420). Kind of assay: Cell growth assay (CellTiterGlo, 72 hours). The assay is classed as cell-based. Conditions: for IC50: MIA PaCa-2, MiaPaCa2 cells, 72 hours, read-out: IC50 MiaPaCa. How it is done:
The inhibition of cell growth by the compounds was tested by exposing the human pancreatic cancer cell line MiaPaCa2 (ATCC CRL-1420) to the compounds. The assay was performed in 384 well clear bottom white microtiter plates (Greiner #781098). Each well was seeded with 10^3 cells in 20 μl of Dulbecco's modified Eagle's medium (Sigma D6796) supplied with 10% fetal calf scrum (Sigma F7524), 2.5% horse serum (Sigma H0146), 1% Penicillin-Streptomycin (Sigma P0781), 1% MEM nonessential amino acid solution 100× (Sigma M71459) and 1% 200 mM L-Glutamine (Sigma G7513) culture medium. After overnight incubation at 37° C. in 5% CO2 the compounds were added in the following concentrations: 100, 50, 20, 10, 5, 2, 1, 0.5, 0.2 and 0.1 μM. Each compound concentration was tested in quadruplicate. The incubation was then continued for 72 hours. After 72 hours the growth of the cells was assessed by the addition of the CellTiterGlo reagent (Promega G9242) as instructed by the provider. The luminescent signal was recorded on a SpectraMax M2 microplate reader. The signal obtained in wells containing cells cultivated in the absence of compound was set to 100% growth after subtracting the signal obtained in medium only wells. The % growth in each well was calculated by subtracting the medium only value and dividing through the 100% growth value. The IC50 for cell growth, the concentration of compound at which cell growth was reduced to 50%, was calculated with the GraFit6 software (Erythacus software).
For orientation: In ATP-based viability assays light output follows the ATP content of the culture.

The source of these data is patent US20200031811A1, “SUBSTITUTED MONO- AND POLYAZANAPHTHALENE DERIVATIVES AND THEIR USE” (Basilea Pharmaceutica International AG, priority 2015, published 2020).

Broadly, the IC50 is the point on the concentration scale where inhibition reaches its midpoint.

T1 sequence (Q9BUB5 whole entry): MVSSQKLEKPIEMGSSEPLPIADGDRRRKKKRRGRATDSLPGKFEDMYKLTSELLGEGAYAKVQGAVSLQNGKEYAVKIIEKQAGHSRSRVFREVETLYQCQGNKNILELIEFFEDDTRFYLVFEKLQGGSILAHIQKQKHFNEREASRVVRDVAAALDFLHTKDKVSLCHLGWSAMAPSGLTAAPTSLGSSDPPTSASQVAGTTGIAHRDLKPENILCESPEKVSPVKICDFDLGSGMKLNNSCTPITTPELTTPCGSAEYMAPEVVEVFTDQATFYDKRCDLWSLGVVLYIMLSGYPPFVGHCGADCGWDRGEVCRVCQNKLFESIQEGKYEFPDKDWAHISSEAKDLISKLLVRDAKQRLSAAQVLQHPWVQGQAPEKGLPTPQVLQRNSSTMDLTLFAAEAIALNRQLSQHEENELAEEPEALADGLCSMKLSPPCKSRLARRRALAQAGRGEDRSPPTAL

As for `N[C@H]1CC[C@@H](CNc2ccc3cncc(-c4cc5ccccc5o4)c3c2)CC1` [Example 231], the inhibition at 10 µM in assay [1] (at 10 μM, read-out: Inhibition of MNK1 activity at indicated concentration) was 54%. Further, the half-maximal inhibitory concentration (IC50) in assay [2] was 3240 nM.
Turning to `N#Cc1ccc(-c2cncc3ccc(CN4CCC(N)CC4)cc23)cc1` [Example 4], the IC50 in assay [1] came to 334 nM; in assay [2] it was 26000 nM.
For `NC1CCN(Cc2cc3c(-c4cc5ccccc5o4)cncc3c(F)c2F)CC1` [Example 248], the concentration for half-maximal inhibition (IC50) in assay [1] worked out at 147 nM; in assay [2], 10000 nM.
Turning to `N[C@H]1CC[C@H](CNc2ccc3cncc(-c4cc5ccccc5o4)c3c2)CC1` [Example 230, trans-N-[(4-Aminocyclohexyl)methyl]-4-(benzofuran-2-yl) isoquinolin-6-amine], the results for the IC50 in assay [1] and in assay [2] were 2190 nM and 6020 nM, respectively.
The matching figures for `NC1CCN(Cc2ccc3cncc(-c4cc5cc(Cl)ccc5o4)c3c2)CC1` [Example 188]: 340 nM and 5630 nM.
For `NC1CCN(Cc2ccc3cncc(-c4ccc(NC(=O)Nc5cccc(Cl)c5)cc4)c3c2)CC1` [Example 114] the same measures were 1210 nM and 3830 nM.
`N#Cc1cc(CN2CCC(N)CC2)cc2c(-c3ccccc3)cncc12` [Example 307]: the IC50 in assay [1] worked out at 256 nM; in assay [2], 47700 nM.
In the case of `NCCCOCc1ccc2cncc(-c3ccc(O)cc3)c2c1` [Example 44, 4-[6-(3-Aminopropoxymethyl)-4-isoquinolyl]phenol], the 50% inhibitory concentration (IC50) in assay [1] was 61 nM; in assay [2], 20600 nM.
As for `NCc1ccccc1NCc1ccc2cncc(-c3cc4ccccc4o3)c2c1` [Example 51, 2-(Aminomethyl)-N-[[4-(benzofuran-2-yl)-6-isoquinolyl]methyl]aniline], the 50% inhibitory concentration (IC50) was 4220 nM in assay [1] and 6340 nM in assay [2].
For `N[C@@H]1CCN(Cc2ccc3cncc(-c4cc5ccccc5o4)c3c2)C[C@H]1F` [Example 205], the results for the half-inhibitory concentration (IC50) in assay [1] and in assay [2] were 2150 nM and 4520 nM, respectively.
Take `Nc1ncc(-c2ccc(F)c(F)c2)c2cc(CN3CCC(N)CC3)ccc12` [Example 221]: the IC50 in assay [1] was 351 nM; in assay [2], 5030 nM.
As to `COc1cc(CN2CCC(N)CC2)cc2c(-c3ccc(F)c(F)c3)cnc(N)c12` [Example 296], the IC50 in assay [1] was found to be 453 nM; in assay [2], 5340 nM.
With `CN(C)c1cc(NCc2ccc3cncc(-c4cc5ccccc5o4)c3c2)ccn1` [Example 68], the half-maximal inhibitory concentration (IC50) in assay [1] worked out at 45 nM; in assay [2], 6190 nM.
In the case of `NC1CCN(Cc2ccc3cncc(-c4ccccc4)c3c2)CC1` [Example 7], the figures for the IC50 in assay [1] and in assay [2] were 744 nM and 17500 nM, respectively.
The matching figures for `N[C@H]1CC[C@H](Nc2ccc3cncc(-c4cc5ccccc5o4)c3c2)CC1` [Example 148, 4-(Benzofuran-2-yl)-N-(4-(trans)aminocyclohexyl)isoquinolin-6-amine]: 58 nM and 1740 nM.
For `COc1cc(CN2CCC(N)CC2)cc2c(-c3cc4ccccc4o3)cnc(N)c12` [Example 258, 6-[(4-Amino-1-piperidyl)methyl]-4-(benzofuran-2-yl)-8-methoxy-isoquinolin-1-amine] the same measures were 149 nM and 3570 nM.
The matching figures for `CO[C@H]1CN(Cc2ccc3cncc(-c4cc5ccccc5o4)c3c2)CC[C@H]1N` [Example 270, (3S,4R/3R,4S)-1-[[4-(Benzofuran-2-yl)-6-isoquinolyl]methyl]-3-methoxy-piperidin-4-amine]: 934 nM and 13700 nM.
On to `NC1CCC(NCc2ccc3cncc(-c4ccc(O)cc4)c3c2)C1` (centres unmarked) [Example 42, 4-[6-[[(3-Aminocyclopentyl)amino]methyl]-4-isoquinolyl]phenol], for which, in assay [1], the IC50 was 496 nM. In addition, the inhibition at 50 µM in assay [2] (MIA PaCa-2, at 50 μM, read-out: Inhibition of MiaPaCa growth at indicated concentration) is 44%.
Consider `N[C@H]1CC[C@H](Oc2ccc3cncc(-c4ccccc4)c3c2)CC1` [Example 309], for which the IC50 in assay [1] amounted to 61 nM; in assay [2], 4430 nM.
